Experiments:
[1] = tested on: SW 1088 cells, A-172 cells, U-87 MG cells; assay: Cell viability using MTT dye; assay type: cell-based; details: Stiripentol at 250 μ/M; SW 1088, A-172, U-87 MG cells; vs untreated negative control
Experimental: The present disclosure uses Stiripentol as a chemotherapeutic agent to treat brain tumor. Referring to FIG. 1, the cell viability is determined by using MTT dye (3-(4,5-dimethylthiazol-2-yl)-2,5-diphenyltetrazolium bromide and neutral red dye (3-amino-7-dimethylamino-2-methyl-phenazine hydrochloride). Cancer cells from various cell lines (SW 1088 cells, A-172 cells, U-87 MG cells) are incubated with, Stiripentol in the concentration range of 100-250 μ/M. Simultaneously all the cell lines are incubated with etoposide (positive control) in the concentration of 50 μ/M. The cells lines were thereafter treated with 0.05% (w/v) MTT dye for 4 h at 37° C. and DMSO. The cells lines that received no treatment are used as negative control. […] Cells can be incubated with drugs at indicated concentrations and time points. For the MTT assay, at the end of the drug treatments, cells are treated with 0.05% (w/v) MTT dye for 4 h at 37° C. The formazan crystals are dissolved in DMSO and absorbance was measured at 570 nm using the spectrophotometer. Similarly for neutral red assay, Cells are incubated with drugs at indicated concentrations and time points. Briefly, at the end of the drug treatments, cells are incubated with 40 μg/ml neutral red dye for 4 h at 37° C. […] Absorbance was measured at 540 nm using Tecan spectrophotometer.

[2] = tested on: SW 1088 cells, A-172 cells, U-87 MG cells; assay: Cell viability using neutral red dye; assay type: cell-based; details: Stiripentol at 250 μ/M; after 24 hours; SW 1088, A-172, U-87 MG cells; vs untreated negative control
Experimental: According to an embodiment the Cell viability can be determined using MTT dye (3-(4,5-dimethylthiazol-2-yl)-2,5-diphenyltetrazolium bromide) and neutral red dye (3-amino-7-dimethylamino-2-methyl-phenazine hydrochloride). Cells can be incubated with drugs at indicated concentrations and time points. For the MTT assay, at the end of the drug treatments, cells are treated with 0.05% (w/v) MTT dye for 4 h at 37° C. The formazan crystals are dissolved in DMSO and absorbance was measured at 570 nm using the spectrophotometer. Similarly for neutral red assay, Cells are incubated with drugs at indicated concentrations and time points. Briefly, at the end of the drug treatments, cells are incubated with 40 μg/ml neutral red dye for 4 h at 37° C. Cells were then destained using a solution (50% ethanol, 49% deionized water, and 1% glacial acetic acid). Absorbance was measured at 540 nm using Tecan spectrophotometer. Referring to FIG. 2, cell viability can be determined by utilizing natural red dye (3-amino-7-dimethylamino-2-methyl-phenazine hydrochloride). Cancer cells from various cell lines namely SW 1088 cells, A-172 cells, U-87 MG cells are incubated with Stiripentol and Doxorubicin (used as positive control) in the concentration range of 50-250 μ/M. thereafter the cells are treated with 40 μg/ml neutral red dye for 4 h at 37° C. and destained. […]

[3] = tested on: SW 1088 cells, A-172 cells, U-87 MG cells; assay: Cell proliferation activity using BrdU assay; assay type: cell-based; details: Stiripentol at 250 μ/M; after 72 hours; SW 1088, A-172, U-87 MG cells; vs untreated negative control
Experimental: Referring to FIG. 3, cell proliferative activity of the cancer cells can be determined using BrdU assay. Cancer cells from cell lines namely SW 1088 cells, A-172 cells, U-87 MG cells are incubated with Stiripentol and Doxorubicin (used as positive control) in the concentration range of 50-250 μ/M. The cell lines are treated with 10 micromolar of BrdU for 2 hours and washed with PBS and Formaldehyde. The treated cell lines are incubated with primary antibody and the secondary antibody. The untreated cells lines are used as negative control here.

[4] = tested on: LDH enzyme from U-87 MG; assay: LDH inhibitory activity; assay type: biochemical; details: Stiripentol at 200 μ/M; after 24 hours; 1.7 mM pyruvate, 250 μM β-NADH; homogenized U-87 MG cells
Experimental: Cancer cells up regulate glycolysis to support rapid growth. LDH is an enzyme part of glycolysis. Referring to FIG. 4 LDH inhibitory activity of Stiripentol can be measured by using LDH enzyme from U-87 MG. The cell culture media is treated with HEPES buffer. Cells are homogenized and treated with the respective drug. Cancer cells thereafter are incubated with Oxamate (used as positive control) at 250 μ/M and Stiripentol at 100 and 200 μ/M respectively. The treated cells are mixed with 1.7 mM of pyruvate and 250 μM of β-NADH.

SMILES: CC(C)(C)C(O)/C=C/c1ccc2c(c1)OCO2 (stereo not shown) [Stiripentol, 4,4-dimethyl-1-[3,4-(methylendioxy)-phenyl]-1penten-3-ol]
- cell viability (MTT dye) [1]: substantial decrease in the cell viability
- viability of the cancer cells (natural red dye) [2]: substantial reduction in the viability
- cell proliferation activity (BrdU) [3]: substantial reduction in the cell proliferation activity
- LDH inhibitory activity (production of LDH enzyme) [4]: substantial decrease in the production of LDH enzyme
